Experimental data from publication PMC4774911, “Biochemical Screening of Five Protein Kinases from Plasmodium falciparum against 14,000 Cell-Active Compounds” (PLoS ONE, 2016).
Where two headings read alike, the source gives them in different places.

Tests used:
3D7 PFLDH [1] = test system: 3D7 PFLDH; parameters: method as in downloaded from ChEMBL; settings: ref downloaded from ChEMBL; cited from earlier work
P. falciparum 3D7 cells = settings: cited from earlier work
DD2 [2] = test system: DD2; parameters: method as in downloaded from ChEMBL; settings: ref downloaded from ChEMBL; cited from earlier work
HepG2 cells = settings: cited from earlier work
[3] = molecular target: T1, Plasmodium falciparum calcium-dependent protein kinase 1 (CDPK1) (Plasmodium falciparum, UniProt P62344); experiment: CDPK1 Kinase-Glo ATP-consumption screen and dose-response; assay type: biochemical
T1 construct: 6-Histidine (N); made in house
How it was run: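 ATP consumption by recombinant P. falciparum CDPK4 or CDPK1 measured as residual ATP by Kinase-Glo luminescence, with 40 μM Syntide-2 substrate and 90 min incubation stopped with 5 mM EGTA. Single-point screen at 1 μM final, followed by dose-response; no-substrate wells as negative control.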

DD2 [4] = test system: DD2; parameters: method as in F.J. Gamo et al., Nature 2010; settings: P. falciparum Dd2; downloaded from ChEMBL ref F.J. Gamo et al., Nature 2010; cited from earlier work
3D7 PFLDH [5] = test system: 3D7 PFLDH; parameters: method as in F.J. Gamo et al., Nature 2010; settings: downloaded from ChEMBL ref F.J. Gamo et al., Nature 2010; cited from earlier work
[6] = molecular target: T2, Plasmodium falciparum protein kinase 6 (PK6) (Plasmodium falciparum, UniProt Q8IDW1); experiment: biochemical; settings: hits below 1 uM; read-out: PK6 IC50
T2 construct: 6-Histidine (N); made in house
T2 sequence (Q8IDW1 1-305): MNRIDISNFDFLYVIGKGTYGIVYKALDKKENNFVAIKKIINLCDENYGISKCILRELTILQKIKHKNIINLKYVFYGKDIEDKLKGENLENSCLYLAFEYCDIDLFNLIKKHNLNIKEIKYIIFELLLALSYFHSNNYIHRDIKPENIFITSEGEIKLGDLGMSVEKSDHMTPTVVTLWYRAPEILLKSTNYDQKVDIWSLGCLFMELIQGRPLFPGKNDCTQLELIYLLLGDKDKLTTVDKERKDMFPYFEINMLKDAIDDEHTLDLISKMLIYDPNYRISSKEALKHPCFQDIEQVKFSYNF

[7] = 3D7, ref downloaded from ChEMBL
[8] = HEPG2, ref downloaded from ChEMBL
[9] = hits below 1 uM, read-out: CDPK1 IC50
[10] = P. falciparum 3D7, downloaded from ChEMBL ref F.J. Gamo et al., Nature 2010
[11] = HepG2 cells, downloaded from ChEMBL ref F.J. Gamo et al., Nature 2010

T1 sequence (P62344 whole entry): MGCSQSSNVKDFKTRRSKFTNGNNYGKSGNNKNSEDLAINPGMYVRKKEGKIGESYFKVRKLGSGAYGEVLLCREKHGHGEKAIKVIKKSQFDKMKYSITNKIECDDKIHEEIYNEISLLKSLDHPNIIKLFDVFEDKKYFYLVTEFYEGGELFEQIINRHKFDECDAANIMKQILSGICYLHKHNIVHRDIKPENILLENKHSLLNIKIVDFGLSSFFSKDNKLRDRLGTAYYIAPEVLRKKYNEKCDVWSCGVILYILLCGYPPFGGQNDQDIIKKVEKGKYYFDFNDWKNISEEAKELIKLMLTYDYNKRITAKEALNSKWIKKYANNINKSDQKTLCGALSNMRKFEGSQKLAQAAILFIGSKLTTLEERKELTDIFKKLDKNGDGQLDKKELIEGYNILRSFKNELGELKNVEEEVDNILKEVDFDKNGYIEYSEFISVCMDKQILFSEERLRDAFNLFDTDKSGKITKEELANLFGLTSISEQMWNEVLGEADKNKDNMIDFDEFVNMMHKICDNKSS

Row | SMILES | PCT_INHIB_3D7_PFLDH (3D7 PFLDH [1]) | PCT_IHB_3D7 (P. falciparum 3D7 cells; [7]) | pXC50_3D7 (P. falciparum 3D7 cells; [7]) | PCT_INHB_DD2 (DD2 [2]) | PCT_INHIB_HEPG2 (HepG2 cells; [8]) | IC50 [3] [nM] | IC50 [3, 9] [nM] | PCT_INHB_DD2 (DD2 [4]) | PCT_IHB_3D7 (P. falciparum 3D7 cells; [10]) | pXC50_3D7 (P. falciparum 3D7 cells; [10]) | PCT_INHIB_3D7_PFLDH (3D7 PFLDH [5]) | IC50 [6] [nM] | PCT_INHIB_HEPG2 (HepG2 cells; [11])
1 | COc1ccc(-c2cnc3ccc(NCCCO)nn23)cc1OC [TCMDC-136683] | 0 | 98 | 6.172 | 90 | 9 | 361 |  |  |  |  |  |  | 
2 | COc1ccc(-c2cnc3ccc(NC4CCC(O)CC4)nn23)cn1 (centres unmarked) [TCMDC-136694] | 4 | 98 | 6.146 | 73 | 54 |  | 379 |  |  |  |  |  | 
3 | Cl.Oc1cccc(Nc2ccnc3cc(-c4ccncc4)ccc23)c1 [TCMDC-138292] | 1 | 100 | 5.98 | 99 | 8 |  | 884 |  |  |  |  |  | 
4 | Cl.Oc1cccc(Nc2ccnc3cc(-c4nccs4)ccc23)c1 [TCMDC-138297] | 0 | 98 |  |  | 0 |  | 997 |  |  |  |  |  | 
5 | Cc1nc(-c2cccc(Nc3ccnc4cc(-c5nccs5)ccc34)c2)no1.Cl [TCMDC-138334] | 0 | 99 | 6.492 | 90 | 37 |  | 191 |  |  |  |  |  | 
6 | Cc1nnc(-c2cccc(Nc3ccnc4cc(-c5nccs5)ccc34)c2)o1.Cl [TCMDC-138335] | 0 | 95 | 6.199 | 89 | 38 |  | 186 |  |  |  |  |  | 
7 | Oc1cc(Nc2ccnc3cc(I)ccc23)c(F)cc1Cl [TCMDC-138386] | 0 | 92 | 6.08 | 77 | 0 |  | 282 |  |  |  |  |  | 
8 | CN(C)CCN(C)Cc1ccc(-c2ccc3c(Nc4ccc(Cl)cc4F)ccnc3c2)o1 [TCMDC-138388] | 1 | 100 | 6.444 | 76 | 20 |  | 604 |  |  |  |  |  | 
9 | CN(C)Cc1ccc(-c2ccc3c(Nc4ccc(Cl)cc4F)ccnc3c2)o1 [TCMDC-138389] | 0 | 100 | 6.6173 | 99 | 13 |  | 185 |  |  |  |  |  | 
10 | CN(C)CCNCc1ccc(-c2ccc3c(Nc4ccc(Cl)cc4F)ccnc3c2)o1 [TCMDC-138391] | 0 | 99 | 6.681 | 100 | 14 |  | 374 |  |  |  |  |  | 
11 | CN1CCN(Cc2ccc(-c3ccc4c(Nc5ccc(Cl)cc5F)ccnc4c3)o2)CC1 [TCMDC-138395] | 0 | 100 | 6.811 | 100 | 47 |  | 406 |  |  |  |  |  | 
12 | Fc1cc(Cl)ccc1Nc1ccnc2cc(-c3ccc(CNCCN4CCOCC4)o3)ccc12 [TCMDC-138397] | 0 | 100 | 6.5582 | 100 | 13 |  | 383 |  |  |  |  |  | 
13 | CN1CCN(c2ccc(Nc3nccc(-c4cnn5ncccc45)n3)cc2Cl)CC1 [TCMDC-138688] |  |  |  |  |  |  | 232 | 92 | 95 | 6.08 | 0 | 179 | 65
14 | NS(=O)(=O)c1cccc(Nc2nccc(-c3cnn4ncccc34)n2)c1 [TCMDC-138919] |  |  |  |  |  |  |  | 89 | 89 | 6.18 | 0 | 246 | 39
